The source of these data is patent US20240325358A1, “PHARMACEUTICAL COMPOSITION FOR PREVENTION OR TREATMENT OF ALLERGIC SKIN DISEASE OR SKIN PRURITUS” (CUePEAK BIO. Co., Ltd., priority 2023, published 2024).

Experiment [1] concerns filaggrin. Kind of experiment: Expression amount of filaggrin in NHEK by RNA extraction and RT-qPCR. Format: cell-based, human. The note with it: NHEK, 0, 0.5, 1.0 and 2.5 μM, after 24 hours of treatment; FIGS. 1A and 1B. From the text:
(§1) • A human epidermal cell line (normal human epidermal keratinocyte; NHEK) is a human fetal transdermal cell line and was used after being distributed from ATCC.
(§2) It was a cell obtained from primary culture and was used for confirming biochemical changes within the cell by ABT-751 or TN-16 under normal conditions, not disease conditions. • Experimental animal: Since a hos:HR-1(hairless) mouse has no hair in skin disease research, it allows skin-related research to be performed by directly applying a drug on skin or inducing skin diseases by chemical or biological allergen.
A normal human epidermal keratinocyte (NHEK) on which ABT-751, TN-16, or a control sample was applied, or a mouse skin tissue was dissolved using a TRI reagent (MRC), and then RNA in cells was extracted using Rneasy Mini Kit (Qiagen).
The extracted RNA was reverse-transcribed with ImProm-II TM Reverse Transcription Kit (Promega) to synthesize cDNA, and then an amount of filaggrin was measured by a quantitative PCR (qPCR) through Real-Time PCR Detection System (Bio-Rad, CFX96).
The normal human epidermal keratinocytes (NHEK) in culture was treated with ABT-751 and TN-16, respectively to measure the expression amount of filaggrin and confirm a change in cell differentiation degree. […]
(In qPCR the cycle at which signal appears reflects the starting amount.)

Experiment [2] relates to normal human epidermal keratinocytes (NHEK). Kind of experiment: Cell differentiation degree in normal human epidermal keratinocytes. Format: cell-based. The note with it: 24 hours of treatment, compared with untreated control group, FIG. 2.
From the text: as §1, §2
The normal human epidermal keratinocytes (NHEK) in culture was treated with ABT-751 and TN-16, respectively to measure the expression amount of filaggrin and confirm a change in cell differentiation degree.
NHEK was treated with ABT-751 and TN-16 by concentrations of 0, 0.5, 1.0, and 2.5 μM, respectively, and after 24 hours of treatment, the expression amount of filaggrin and the cell differentiation degree were observed.

In experiment [3] the test system is filaggrin. Kind of experiment: Expression amount of filaggrin in HR-1 mouse back skin tissue (RT-qPCR and Western blot). Format: in vivo, hos:HR-1 mouse. The note with it: HR-1 mouse back skin, 1, 2 and 4% formulations applied once a day, vs 0% formulation control; RNA and protein; FIGS. 3A to 3C.
From the text: as §2
In addition, it has a skin thickness of about 0.4 mm at 8 to 10 weeks of age, which is similar to the skin of a human, and is useful for research on pathogenesis mechanism of skin diseases and confirmation of biochemical changes in skin tissue. […]
The extracted RNA was reverse-transcribed with ImProm-II TM Reverse Transcription Kit (Promega) to synthesize cDNA, and then an amount of filaggrin was measured by a quantitative PCR (qPCR) through Real-Time PCR Detection System (Bio-Rad, CFX96). […]
The thin film was reacted with an ECL solution (Thermo Fisher), and the protein after the reaction was detected using a luminescence reaction measuring instrument (Fusion Solo, Vilber). […]
Each of RNA and protein was extracted from the back skin tissue on which ABT-751 or TN-16 was applied, respectively, by the method of the text example and the expression amount of filaggrin was measured, and the results are shown in FIG. 3.

The test system of a further experiment is HR-1 mouse skin. The experiment in a line: Skin barrier function test (skin moisture loss, skin barrier index) in HR-1 mouse. It is filed as in vivo, hos:HR-1 mouse. The note with it: 4% formulation applied on back skin once a day, vs 0% formulation, effect grew with days of application, FIG. 4.
From the text: as §2
In addition, it has a skin thickness of about 0.4 mm at 8 to 10 weeks of age, which is similar to the skin of a human, and is useful for research on pathogenesis mechanism of skin diseases and confirmation of biochemical changes in skin tissue.
2 hours after applying ABT-751 or TN-16, skin moisture loss, a skin barrier index, and a comprehensive index on the application area were measured for 3 weeks with a precision measuring instrument (Courage-khazaka electronic GmbH, MPA10), and recorded.
ABT-751 and TN-16 of 0, 1, 2, and 4% formulations were applied on the back skin of a hairless hos:HR-1 mouse (hereinafter, referred to as HR-1 mouse) in the same amount once a day for 3 weeks, respectively.
After each application, skin moisture loss and a skin barrier index were measured by the method of the test example.
After applying the control group (0% formulation ABT-751 or 0% formulation TN-16) and ABT-751 or TN-16 of a 4% formulation, respectively, skin moisture loss and a skin barrier index were measured, and the results are shown in FIG. 4.

As for `COc1ccc(S(=O)(=O)Nc2cccnc2Nc2ccc(O)cc2)cc1` [ABT-751, N-[2-[(4-Hydroxyphenyl)amino]pyridin-3-yl]-4-methoxybenzenesulfonamide], in the experiment with filaggrin [1], the “expression amount of filaggrin” value was “increased depending on the ABT-751 and TN-16 treatment concentrations”. The cell differentiation degree result in experiment [2] is “significantly increased”. For the same compound, the “expression amount of filaggrin in the skin tissue” value in the experiment on filaggrin [3] was “increased in a concentration-dependent manner”. In the experiment on HR-1 mouse skin, the skin barrier index result is recorded as “increased” and the skin moisture loss entry was “decreased”.

On to `C/C(Nc1ccccc1)=C1/C(=O)NC(Cc2ccccc2)C1=O` (stereo not drawn) [TN-16, 3-[1-(phenylamino)ethylidene]-5-(phenylmethyl)-2,4-pyrrolidinedione], for which the “expression amount of filaggrin” value with filaggrin [1] was “increased depending on the ABT-751 and TN-16 treatment concentrations”. For the same compound, the “expression amount of filaggrin in the skin tissue” value in the experiment with filaggrin [3] was “increased in a concentration-dependent manner”. In the experiment with HR-1 mouse skin, the skin barrier index entry was “increased” and the skin moisture loss entry was “decreased”.
